Structures are written as SMILES.

A word on the IC50: it is the concentration that inhibits the measured activity by half. A high value points to lower potency.

The assay has as its target NTR1 (Homo sapiens, UniProt P30989). Kind of assay: In vitro competitive binding on HT-29 cells against 177Lu-N1.

NTR1, sequence (P30989 whole entry): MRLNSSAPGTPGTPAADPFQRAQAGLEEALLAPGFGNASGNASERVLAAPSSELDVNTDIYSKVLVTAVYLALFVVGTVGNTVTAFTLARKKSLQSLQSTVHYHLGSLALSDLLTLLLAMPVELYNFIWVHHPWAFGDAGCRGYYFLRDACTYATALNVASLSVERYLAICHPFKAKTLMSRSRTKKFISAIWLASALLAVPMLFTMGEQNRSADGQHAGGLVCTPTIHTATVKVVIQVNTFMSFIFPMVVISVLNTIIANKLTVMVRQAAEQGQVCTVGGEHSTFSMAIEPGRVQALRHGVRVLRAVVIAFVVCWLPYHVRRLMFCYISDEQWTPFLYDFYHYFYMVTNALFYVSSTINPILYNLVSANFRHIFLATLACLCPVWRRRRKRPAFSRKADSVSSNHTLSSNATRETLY

With `Cc1cc(O)cc(C)c1C[C@H](NC(=O)[C@@H]1CCCN1C(=O)[C@H](CCCNC(=N)N)NC(=O)[C@H](CCCNC(=N)N)N(C)C(=O)[C@@H]1CCCN1C(=O)[C@H](CCCCN)NC(=O)CN1CCN(CC(=O)O)CCN(CC(=O)O)CCN(CC(=O)O)CC1)C(=O)N[C@H](C(=O)N[C@@H](CC(C)C)C(=O)O)C(C)(C)C` [N0, DOTA-Lys-Pro-(N-Me)Arg-Arg-Pro-Dmt-Tle-Leu-OH], the IC50 came to 52.3 ± 1.5 nM. The result for `Cc1cc(O)cc(C)c1C[C@H](NC(=O)[C@@H]1CCCN1C(=O)[C@H](CCCNC(=N)N)NC(=O)[C@H](CCCNC(=N)N)N(C)C(=O)[C@@H]1CCCN1C(=O)[C@H](CCCCN)NC(=O)CCNC(=O)CN1CCN(CC(=O)O)CCN(CC(=O)O)CCN(CC(=O)O)CC1)C(=O)N[C@H](C(=O)N[C@@H](CC(C)C)C(=O)O)C(C)(C)C` [N1, DOTA-β-Ala-Lys-Pro-(N-Me)Arg-Arg-Pro-Dmt-Tle-Leu-OH] reads 27.6 ± 1.3 nM.

For the origin of these results see PMC4593760 (Nuclear medicine and biology, 2015).
